Laboratory results as given in US6911324B2, “Induction of beta cell differentiation in human cells” (The Regents of the University of California, priority 2001, dated 2005).

Tests used:
Type in all cases: cell-based, human
[1] = test system: βlox5/PDX-1 cells; assay: Expansion of βlox5/PDX-1 cells under continued administration; conditions: continued administration of 4-OHTM; cells ordinarily almost completely growth arrested
Excerpt: The finding that c-Myc induces the translocation of PDX-1 to the cytoplasm provides important clues to the mechanism by which c-Myc may act on pancreatic endocrine cell proliferation and differentiation. In our system, not only does PDX-1 play a role in inducing hormone expression, but it also produces a marked growth arrest, particularly in the β-cell line βlox5. […] Thus, cell-cell contact and PDX-1 each play dual roles in inhibiting entry into the cell cycle as well as promoting differentiation.

[2] = test system: βlox5/PDX-1/MycER cells; assay: PDX-1 cellular localization and p38 activation state
Excerpt: PDX-1 plays a role in the establishment and maintenance of β-cell differentiation. In both the βlox5 and TRM-6 cell lines, it is required for the induction of hormone expression. Therefore, PDX-1 was a good candidate for being a downstream target for c-Myc in the inhibition of hormone expression. Since, in the cell lines that we are studying, PDX-1 is introduced exogenously using a retroviral vector and is transcribed from the retroviral LTR promoter, it was unlikely that c-Myc would be acting at the transcriptional level. Therefore, we investigated PDX-1 cellular localization in βlox5/PDX-1/MycER cells in the presence and absence of 4-OHTM. […] However, many cells exposed to 4-OHTM continued to express PDX-1 in the nucleus and PDX-1 binding to a target DNA sequence could still be detected by EMSA. This could be due to the length of time that the cells were exposed to 4-OHTM or to other pathways such as p38 (RK/SAPK2) that influences PDX-1 localization and function.
Because PDX-1 localization has been reported to be influenced by the p38 pathway, the activation state of p38 was studied using a monoclonal antibody specific for the phosphorylated/active form of the enzyme. In control and 4-OHTM-treated βlox5/PDX-1/MycER cells, active p38 was present in the cytoplasm.

[3] = test system: TRM-6/PDX-1 cells; assay: Somatostatin expression after c-Myc induction in TRM-6 aggregates; conditions: four days of aggregation, presence of 4-OHTM
Procedure: (§1) To determine whether the induction of differentiation in the TRM-6 and βlox5 cell lines requires downregulation of c-Myc expression, the effect of inducing c-Myc activity on hormone expression in cells expressing the MycER fusion protein was tested. 4-OHTM or the same amount of ethanol carrier was added to TRM-6/PDX-1 and βlox5/PDX-1 cells at the initiation of the four day period of aggregation required for hormone induction. In addition, 100 nM of the GLP-1 agonist exendin-4 was added to βlox5/PDX-1, as activation of the GLP-1 receptor is necessary for β-cell differentiation in that cell line (Itkin-Ansari, et al., Molec. Endocrinol. 14:814-822(2000)).
(§2) In the absence of 4-OHTM, TRM-6 aggregates expressed high levels of somatostatin after four days of aggregation, while βlox5 aggregates expressed high levels of insulin. […] Insulin protein (273±70.5 pmoles/L) was detected by ELISA in supernatant from βlox5/PDX-1/MycER aggregates in the absence of 4-OHTM but was undetectable in the presence of 4-OHTM. Data were obtained from four independent experiments. To determine whether c-Myc activation produced ablation of hormone expression as opposed to a switch to a different endocrine lineage, the expression of the other major pancreatic hormones, somatostatin, glucagon and pancreatic polypeptide, was measured in 4-OHTM-treated βlox5/PDX-1/MycER cells and found to be absent.

[4] = test system: βlox5/PDX-1/MycER aggregates; assay: Transcription factor expression after c-Myc activation (RT-PCR, EMSA, western blot); conditions: c-Myc activation by 4-OHTM
Procedure: For western blots, whole-cell extracts (10 μg of protein) from monolayer cultures and aggregates of TRM-6 and βlox5 cells as well as whole-cell extracts of the MycER expressing clones were used. Expression of c-Myc and MycER was determined by Western blot analysis with the human c-Myc-specific monoclonal antibody Myc-9E10 (Santa Cruz Biotechnology, Santa Cruz, Calif.) at a dilution of 1:250. The same membrane was re-probed with anti-actin rabbit antibody A2066 (Sigma, Saint Louis, Mo.) in order to verify the protein equivalence when comparing monolayers to aggregates. Western Blot for Phospho-CREB (Ser133) was performed using a polyclonal antibody (PhosphoPlusCREB (Ser133) Antibody Kit, Cell Signaling Technology, Beverly, Mass.) at a dilution of 1:500. Bound antibody was detected with horseradish peroxidase-linked anti-mouse or anti-rabbit Ig (Amersham Pharmacia Biotech, Buckinghamshire, England) and ECL (Amersham Pharmacia Biotech, Buckinghamshire, England).
βlox5 cells express Pax6 and RIPE3b in both the uninduced and induced states. BETA2/NeuroD is present only when the cells are induced. […] As shown by electrophoretic mobility shift assay analysis (EMSA), although not quantitative, we found binding of PDX-1, BETA2/NeuroD1 or RIPE3b to the insulin promoter in the samples from βlox5/PDX-1/MycER aggregates cultured with and without 4-OHTM. […]

[5] = test system: βlox5/PDX-1/MycER aggregates; assay: Hormone expression after c-Myc induction in βlox5/PDX-1/MycER aggregates (RT-PCR, insulin ELISA)
Procedure: as §1, §2

[6] = test system: MycER fusion protein; assay: RT-PCR of c-Myc downstream targets cyclin E and cyclin A after MycER activation; conditions: βlox5/PDX-1/MycER aggregates
Excerpt: To test the hypothesis that decreased c-Myc expression in cell aggregates plays a causal role in promoting differentiation by cell-cell contact, we took advantage of the inducible properties of a fusion protein between an estrogen receptor and c-Myc (Eilers, et al. Nature 340:66-68 (1989)). MycER was expressed in TRM-6 and βlox5 by retroviral infection followed by puromycin selection. Selected βlox5 and TRM-6 cells expressed MycER as shown by western blot analysis. To determine whether the fusion protein was active, the expression of cyclin E and cyclin A was determined since they are known downstream targets of c-Myc.

[7] = test system: βlox5/PDX-1/MycER aggregates; assay: Ki-67 immunostaining for cell proliferation; conditions: 4-OHTM added to aggregates; 16% without 4-OHTM; n=300 cells
Excerpt: PDX-1 and cell-cell contact caused a decrease in cell proliferation in βlox5/PDX-1/MycER cells as shown by immunostaining for the proliferation-associated nuclear antigen Ki-67. In monolayer culture, 77% of βlox5 cells expressed Ki67, while only 16% of the cells in βlox5/PDX-1/MycER aggregates were Ki67 positive (n=300 cells in each case). Addition of 4-OHTM to the aggregates increased the percentage of Ki67 positive cells to 57%. In the absence of 4-OHTM, few cells in the aggregates were positive for Ki-67, while in the presence of 4-OHTM many cells throughout the aggregates were positive.

[8] = test system: βlox5 cells; assay: RT-PCR analysis of pancreatic hormone gene expression in βlox5 cells
Procedure: FIG. 2: RT-PCR analysis of pancreatic hormone gene expression in βlox5. The conditions tested were βlox5 cells grown in monolayer culture, βlox5 cells infected with a retroviral vector expressing PDX-1, βlox5 cells grown as three-dimensional aggregates, and βlox5 cells treated with exendin-4. FIG. 2(A) insulin; FIG. 2(B) quantitative RT-PCR analysis of insulin gene expression; FIG. 2(C) other pancreatic hormones. Exendin-4 (Sigma) was used at a concentration of 10 nM. RT-PCR for insulin, somatostatin, glucagon, and IAPP have been described previously (Itkin-Ansari et al., submitted). Quantitative RT-PCR was done by interpolation from a standard curve constructed using a plasmid containing the human insulin cDNA.
PDX-1 also acted synergistically with cell-cell contact to further increase the level of somatostatin expression about 1,000-fold above the cells not expressing PDX-1, to a level similar to that found in normal human islets. To determine whether βlox5 could be induced to express pancreatic hormones, recombinant PDX-1 was expressed in βlox5 using a retroviral vector. […] Therefore, other factors were examined for their ability to induce hormone expression in βlox5 cells expressing PDX-1. Activin and betacellulin have been reported to be able to induce endocrine differentiation in cell lines and primary cells (Mashima et al., Diabetes 48:304-9 (1999), Huotari et al., Endocrinology 139, 1494-9 (1998), Mashima et al., J Clin Invest 97:1647-54 (1996), Yamaoka et al., J Clin Invest 102:294-301 (1998)). However, they had no effect on hormone expression in βlox5 cells (data not shown).
GLP-1, a small peptide cleaved from the proglucagon molecule, is an insulin secretogogue Drucker et al., Diabetes 47:159-69 (1998)).

[9] = test system: βlox5 cells; assay: Analysis of transcription factors (BETA2 RT-PCR, CREB western blot) in βlox5 cells
Procedure: FIG. 3: Analysis of transcription factors expressed in βlox5 cells. FIG. 3(A) electrophoretic mobility shift assay (EMSA) of PDX-1. EMSA for PDX-1 was performed using a probe derived from the human insulin promoter A5 element. FIGS. 3(B&C) RT-PCR analysis of BETA2 and Pax6. FIG. 3(D) Western blot analysis of CREB. FIG. 3(E) EMSA of RIPE3b.
The expression of transcription factors important in β-cell development was examined to determine whether they had been induced by PDX-1, cell-cell contact, and exendin-4. […] GLP-1 has been reported to increase cAMP levels and this has been thought to be a major mechanism by which GLP-1 acts as an insulin secretogogue (Serre et al., Endocrinology 139:4448-54 (1998)). […] RIPE3b, a factor that plays a critical role in insulin gene expression but that has not yet been cloned, is expressed in βlox5 irrespective of PDX-1, cell-cell contact, or exendin-4 (FIG. 3E).

[10] = test system: βlox5 cells expressing both NeuroD/BETA2 and PDX-1; assay: Insulin production (RT-PCR) in βlox5 cells expressing both NeuroD/BETA2 and PDX-1
Procedure: Cells were cultured in DMEM with 5.5 mM glucose and 10% FBS. Selection of clones was conducted in the same medium containing 300 ug/ml Hygromycin B. Qualitative RT-PCR was performed according to Itkin-Ansari et al., Mol. Endocrinol. 14:814-822 (2000).
In light of the previous finding that activation of GLP-1 receptor is one of the necessary inducing factors for β-cell differentiation, βlox5 cells expressing both NeuroD/BETA2 and PDX-1 were also tested for insulin production, before and after stimulation by exendin-4. The cells were treated with 10 nM exendin-4 in the culture medium for four days before the assay.
Cell aggregation was induced as described by Itkin-Ansari et al., supra, 2000. Quantitative insulin RT-PCR was performed by interpolation from a standard curve constructed using a plasmid containing the human insulin cDNA, as described by Beattie et al., Diabetes, 48:1013-1019, 1999.

[11] = induced βlox5 cells (PDX-1, cell-cell contact, exendin-4)

Molecule: CC/C(=C(\c1ccc(O)cc1)c1ccc(OCCN(C)C)cc1)c1ccccc1 [4-OHTM]
- cell growth [1]: rapid expansion
- PDX-1 cellular localization ([2]; 4-OHTM-induced activation of c-Myc): translocation of PDX-1 from the nucleus to the cytoplasm
- p38 expression or activation ([2]; 4-OHTM-treated cells, antibody to phosphorylated/active p38): did not result in any changes
- somatostatin mRNA [3]: neither somatostatin nor insulin mRNA was present
- level of mRNA for Pax6 and induction of BETA2/NeuroD1 gene expression ([4]; RT-PCR): did not result in a change
- CREB expression ([4]; western blot): not affected
- expression of somatostatin, glucagon and pancreatic polypeptide ([5]; 4-OHTM-treated βlox5/PDX-1/MycER cells): absent
- insulin mRNA ([5]; four days of aggregation, 100 nM exendin-4, presence of 4-OHTM): neither somatostatin nor insulin mRNA was present
- insulin protein in supernatant by ELISA ([5]; presence of 4-OHTM, 273±70.5 pmoles/L in its absence, four independent experiments): undetectable
- cyclin A expression [6]: did not affect
- cyclin E mRNA expression [6]: increase
- percentage of Ki67 positive cells [7]: 57%

Molecule: Activin
- effect on hormone expression in βlox5 cells ([8]; βlox5 cells expressing PDX-1, data not shown): no effect

Molecule: exendin-4
- BETA2 expression ([9]; PDX-1, cell-cell contact and exendin-4): induced only by the combination of all three inducing factors
- CREB expression ([9]; exendin-4 alone, independently of cell-cell contact and PDX-1): induced
- effect on hormone expression in βlox5 ([8]; exendin-4 by itself, 10 nM, four days): no effect
- Islet amyloid polypeptide (IAPP) mRNA [8, 11]: expressed
- glucagon, somatostatin and pancreatic polypeptide (PP) expression [8, 11]: not induced
- insulin mRNA ([8]; βlox5 cells expressing PDX-1, suspension culture as three-dimensional aggregates, 10 nM exendin-4): a substantial amount of insulin mRNA was detectable
- insulin production ([10]; 10 nM exendin-4, suspension culture, three-dimensional aggregates): clearly detectable
- insulin production ([10]; exendin-4 treatment alone, 10 nM, four days): incapable of inducing insulin production
